Earlier results, collected in patent US7491730B2, “Compositions useful as inhibitors of GSK-3” (Vertex Pharmaceuticals Incorporated, priority 2002, dated 2009).

Biological target: gamma secretase
Details: vendor value, Calbiochem catalog #565771; read-out: reported IC50

IC50: 50 nM
SMILES: CC(C)C[C@H](NC(=O)[C@H](Cc1ccccc1)C[C@@H](O)[C@H](Cc1ccccc1)NC(=O)OC(C)(C)C)C(=O)N[C@@H](Cc1ccccc1)C(N)=O [Inhibitor X]
